Laboratory results from patent US9340819B2, “Method for detecting the presence of carbapenemase-producing bacteria in a sample” (priority 2011, dated 2016).
≈ marks a conversion by molar mass, not a printed value.

Assays:
Type in all cases: cell-based
K. pneumoniae = experiment: MIC by Etest on Mueller-Hinton agar (Example 1); conditions: Klebsiella pneumoniae
Method: Prior to performing the method of the invention, susceptibility testings were performed by determining Minimum Inhibitory Concentration (MIC) values by the Etest® (AB bioMérieux; Solna, Sweden) on Mueller-Hinton agar plates at 37° C. and results of susceptibility testing were recorded according to the Clinical and Laboratory Standards Institute (CLSI) guidelines as modified in June 2010 (18). The breakpoints for imipenem are S≦1 μg/ml (susceptibility) and R≧4 μg/ml (resistant). As for those for ertapenem, they are S≦0.25 μg/ml and R≧1 μg/ml (see Tables 1 and 2).

P. fluorescens = experiment: Susceptibility testing by Etest on Mueller-Hinton agar (Example 3); conditions: Pseudomonas fluorescens
Method: (§1) Susceptibility testing was performed using the Etest® (bioMérieux; La Balmes-les-Grottes, France) on Mueller-Hinton agar plates (Becton Dickinson, Le Pont de Chaix, France) at 37° C. and results were recorded according to US guidelines (CLSI), as updated in 2012. The breakpoints for imipenem, meropenem and doripenem are as follows; susceptibility (S)≦2, and resistance (R)≧8 μg/ml.

P. putida = experiment: as above; conditions: Pseudomonas putida
Method: as §1

P. stutzeri = experiment: as above; conditions: Stutzerimonas stutzeri
Method: as §1

[1] = CIP53153, K. pneumoniae CIP53153 (30), wild-type
[2] = K. pneumoniae 1 OMA (11), NDM-1 + CTX-M-15 + OXA-1 + OXA-9
[3] = K. pneumoniae 2 OMA, NDM-1 + OXA-1
[4] = K. pneumoniae 7 AFR, NDM-1 + OXA-1 + CTX-M-15 + CMY-6 + TEM-1
[5] = K. pneumoniae 6299 (19), ESBL OXA-163
[6] = K. pneumoniae 6759 GEN, NDM-1 + CTX-M-15 + OXA-1 + OXA-9 + OXA-10 + CMY16
[7] = K. pneumoniae (16), ESBL CTX-M-15
[8] = K. pneumoniae BER (28), porin deficiency associated with ESBL, TEM
[9] = K. pneumoniae CHA (5), OXA-48 + TEM-1
[10] = K. pneumoniae COO (27), porin deficiency associated with ESBL, CTX-M-15 + SHV-28
[11] = K. pneumoniae EGY, OXA-48 + CTX-M-15
[12] = K. pneumoniae H1516-6 COL (3), KPC-2 + TEM-1 + CTXM-15
[13] = K. pneumoniae HOL, OXA-181 + CTX-M-15
[14] = K. pneumoniae IND, NDM-1 + OXA-1 + CTX-M-15
[15] = K. pneumoniae MAD, VIM-1 + CTX-M-3
[16] = K. pneumoniae OMA (8), OXA-181 + CTXM-15 + OXA-1
[17] = K. pneumoniae UK (10), NDM-1 + CTX-M-15 + CMY-4 + OXA-1

With `C[C@@H](O)[C@H]1C(=O)N2C(C(=O)O)=C(S[C@@H]3CN[C@H](C(=O)Nc4cccc(C(=O)O)c4)C3)[C@H](C)[C@H]12` [ERT, ertapenem] the MIC (K. pneumoniae; [1]) was 0.19 µg/mL (≈ 0.4 µM), the MIC (K. pneumoniae; [2]) was > 32 µg/mL and the MIC (K. pneumoniae; [3]) was > 32 µg/mL. The MIC (K. pneumoniae; [4]) was > 32 µg/mL, the MIC (K. pneumoniae; [5]) was 0.19 µg/mL (≈ 0.4 µM) and the MIC (K. pneumoniae; [6]) was 32 µg/mL. For the same compound, the MIC (K. pneumoniae; [7]) was 0.19 µg/mL (≈ 0.4 µM), the MIC (K. pneumoniae; K. pneumoniae BEL, OXA-48) was 4 µg/mL (≈ 8.41 µM) and the MIC (K. pneumoniae; [8]) was 0.75 µg/mL (≈ 1.58 µM). It also gave an MIC (K. pneumoniae; K. pneumoniae BIC (4), OXA-48) of 2 µg/mL (≈ 4.21 µM), an MIC (K. pneumoniae; [9]) of 1 µg/mL and an MIC (K. pneumoniae; [10]) of 0.75 µg/mL. The MIC (K. pneumoniae; K. pneumoniae DIN, NDM-1) was 32 µg/mL (≈ 67.3 µM), the MIC (K. pneumoniae; [11]) was 3 µg/mL and the MIC (K. pneumoniae; [12]) was 3 µg/mL. It also gave an MIC (K. pneumoniae; [13]) of 1 µg/mL, an MIC (K. pneumoniae; [14]) of 8 µg/mL and an MIC (K. pneumoniae; K. pneumoniae MAD (15), IMP-13) of 2 µg/mL (≈ 4.21 µM). For the same compound, the MIC (K. pneumoniae; [15]) was > 32 µg/mL, the MIC (K. pneumoniae; [16]) was 2 µg/mL and the MIC (K. pneumoniae; K. pneumoniae RAM, OXA-48) was 2 µg/mL (≈ 4.21 µM). The MIC (K. pneumoniae; K. pneumoniae SAB, NDM-1) was 8 µg/mL (≈ 16.8 µM) and the MIC (K. pneumoniae; [17]) was 32 µg/mL.
With `C[C@@H](O)[C@H]1C(=O)N2C(C(=O)O)=C(SCCN=CN)C[C@H]12` [IMP, imipenem] the MIC (K. pneumoniae; [1]) was 0.19 µg/mL (≈ 0.635 µM), the MIC (K. pneumoniae; [2]) was > 32 µg/mL and the MIC (K. pneumoniae; [3]) was > 32 µg/mL. The MIC (K. pneumoniae; [4]) was > 32 µg/mL, the MIC (K. pneumoniae; [5]) was 0.19 µg/mL (≈ 0.635 µM) and the MIC (K. pneumoniae; [6]) was 6 µg/mL. The MIC (K. pneumoniae; [7]) was 0.19 µg/mL (≈ 0.635 µM), the MIC (K. pneumoniae; K. pneumoniae BEL, OXA-48) was 1 µg/mL (≈ 3.34 µM) and the MIC (K. pneumoniae; [8]) was 0.5 µg/mL (≈ 1.67 µM). It also gave an MIC (K. pneumoniae; K. pneumoniae BIC (4), OXA-48) of 0.5 µg/mL (≈ 1.67 µM), an MIC (K. pneumoniae; [9]) of 0.5 µg/mL and an MIC (K. pneumoniae; [10]) of 0.5 µg/mL. For the same compound, the MIC (K. pneumoniae; K. pneumoniae DIN, NDM-1) was 8 µg/mL (≈ 26.7 µM), the MIC (K. pneumoniae; [11]) was 2 µg/mL and the MIC (K. pneumoniae; [12]) was 2 µg/mL. For the same compound, the MIC (K. pneumoniae; [13]) was 0.5 µg/mL, the MIC (K. pneumoniae; [14]) was 6 µg/mL and the MIC (K. pneumoniae; K. pneumoniae MAD (15), IMP-13) was 0.5 µg/mL (≈ 1.67 µM). For the same compound, the MIC (K. pneumoniae; [15]) was > 32 µg/mL, the MIC (K. pneumoniae; [16]) was 0.5 µg/mL and the MIC (K. pneumoniae; K. pneumoniae RAM, OXA-48) was 1 µg/mL (≈ 3.34 µM). The MIC (K. pneumoniae; K. pneumoniae SAB, NDM-1) was 2 µg/mL (≈ 6.68 µM), the MIC (K. pneumoniae; [17]) was 8 µg/mL and the MIC (P. fluorescens; P. fluorescens COU, VIM-2) was > 0.032 µg/mL. For the same compound, the MIC (P. fluorescens; P. fluorescens, BIC-1) was > 0.032 µg/mL, the MIC (P. putida; CIP55, P. putida CIP 55-5, wild type, none) was 0.0005 µg/mL (≈ 0.00167 µM) and the MIC (P. putida; P. putida 9335, VIM-2) was > 0.032 µg/mL. For the same compound, the MIC (P. putida; P. putida NTU 91/99, VIM-2) was > 0.032 µg/mL, the MIC (P. putida; P. putida NTU 92/99, IMP-1) was 0.001 µg/mL (≈ 0.00334 µM) and the MIC (P. stutzeri; P. stutzeri 13, DIM-1) was > 0.032 µg/mL. The MIC (P. stutzeri; P. stutzeri P511503100, VIM-2) was > 0.032 µg/mL and the MIC (P. stutzeri; P. stutzeri PB207, IMP-1) was 0.002 µg/mL (≈ 0.00668 µM).
